COc1cc(C=O)ccc1O
solubility (mole fraction)
Conditions | 293.15 K | 298.15 K | 303.15 K | 308.15 K | 313.15 K | 318.15 K | 323.15 K
in ethanol | 0.0713 | 0.0779 | 0.0841 | 0.0926 | 0.105 | 0.118 | 0.141
in water | 0.00116 | 0.00141 | 0.00179 | 0.00202 | 0.00234 | 0.00267 | 0.00298
